The record followed here is patent US9604973B2, “Anti-cancer polyketide compounds” (priority 2012, dated 2017).

In general, IC50 refers to the concentration at which inhibition is half-maximal. High values mean lower potency, low ones higher potency.

Assay [1] concerns GAPDH. The experiment in a line: RT-PCR of spliced and unspliced mRNA (intron retention) in CLL cells, housekeeping gene. The format is cell-based, human. The settings on record: 4 hours, same concentrations. As to the method:
(§1) FIG. 23: FD-895 and PLAD induced inhibition of splicing in CLL: RT-PCR for analysis of spliced and unspliced mRNAs. CLL cells treated with FD-895, PLAD (10, 100 nM), chemotherapeutic agent like bendamustine (33, 100 μM) and F-Ara-A (3, 10, 33 μM) for 4 hours. RT-PCR for DNAJB1 was performed with primers spanning two exons; products were analyzed on ethidium bromide-stained agarose gels (2%) to visualize the correct size of the unspliced mRNAs. […] The exon structure of DNAJB1 gene is indicated. G, human genomic DNA was used as a control; U, unspliced mRNA; S, spliced mRNA.
(§2) CLL cells were treated with 10 and 100 nM of FD-895 and PLAD, 33 and 100 μM of bendamustine and 3, 10, and 33 μM of F-Ara-A for 4 h. Normal B and CLL cells were treated with 100 nM of FD-895 and PLAD and 10 μM of F-Ara-A for 15 minutes, 30 minutes, 1, 2 and 4 h. Total RNA was extracted using mirVana™ miRNA isolation kit (Ambion Life Technology, USA). After DNase treatment, 200 ng total RNA was reverse-transcribed using a SuperScript™ III first-strand synthesis system (Invitrogen). PCR was performed on 10 ng of the obtained cDNA (or human genomic DNA as a control) in 25 μl of reaction mixture containing Plantinum® PCR SuperMix High-fidelity (Invitrogen Life Technology, USA), and 0.1 μM of each primer of the appropriate pair.
(§3) PCR conditions were 94° C. for 3 min; 35 cycles of 94° C. for 30 s, 60° C. for 30 s, and 72° C. for 1 min; followed by 72° C. for 5 min. PCR products were separated on a 2% agarose gel and stained with ethidium bromide.

Assay [2] concerns DNAJB1. In words: RT-PCR of spliced and unspliced mRNA (intron retention) in CLL cells. The format is cell-based, human. The settings on record: 4 hours, FD-895, PLAD 10, 100 nM, bendamustine 33, 100 μM, F-Ara-A 3, 10, 33 μM. As to the method: as §1, §2, §3
The subject of assay [3] is CLL cells. The experiment in a line: Flow cytometry, % specific induced apoptosis (DiOC6/PI) in primary CLL cells. The format is cell-based, human. Conditions: Homo sapiens, CLL cell; CLL cells from patient with del (17p) and Tp53 mutation, 48 hours. As to the method: FIG. 20A-20C: FD-895 and PLAD induce apoptosis in CLL cells but not in normal lymphocytes with a TP53 independent activity: Primary leukemia B cells from CLL (FIG. 20A) patient with del (17p) and Tp53 mutation, (FIG. 20B) patient with wild type p53 and sensitive to F-Ara-A and (FIG. 20C) normal lymphocytes from healthy donor were incubated with FD-895, PLAD and F-Ara-A (0, 10, 100, 1000 10,000 nM) for 48 hours.
FIG. 21: FD-895 and PLAD induce apoptosis in CLL cells not ONLY independently of Tp53 but also independently of SF3B1 mutational status: Primary leukemia B cells from CLL patient with SF3B1 wild, SF3B1 mutation, 17p DEL and normal B and T lymphocytes from healthy donor were incubated with FD-895 and PLAD with 100 nM for 48 hours. After incubation, the samples were harvested and % SIA was measured by flow cytometry as described above. […] Each dots represents number of CLL patient sample and normal B or T cells.
Peripheral blood mononuclear cells (PBMC) from patients with CLL were obtained from the CLL Research Consortium (CRC) tissue bank. The blood samples were collected after obtaining a written informed consent from the patients under a protocol approved by the institutional review board of The University of California, San Diego. All patients met criteria for CLL.^1 CLL B cells and PBMCs were separated from heparinized venous blood of the B-CLL patients by density gradient centrifugation using Ficoll-Hypaque (GE healthcare) as described earlier.^2 The samples that were used had more than 95% positive cells for CD19 and CD5+, as assessed by flow cytometry. CLL B cells were maintained in RPMI 1640 medium supplemented with 10% FBS, 2 mM L-glutamine, and 100 U/mL of penicillin and 100 μg/mL of streptomycin at 37° C. in an atmosphere of 5% CO2.
Apoptotic and viable cells were discriminated via flow cytometry of cells stained with 3,3′ dihexyloxacarbocyanine iodide (DiOC6) (Molecular Probes, Eugene, Oreg., USA) and propidium iodine (Sigma, St Louis, Mo., USA), as described.^3 Using this method viable cells exclude PI and stain brightly positive for DiOC6.

In assay [4] the test system is HCT-116 cell line. In words: MTT cell proliferation assay. In kind it is cell-based. The settings on record: HCT-116 cell line; for IC50: MTT. The text has this: Structure Activity Relationships (SAR) studies for 1SS, […], 1RS, and […]. It has been reported that ablation of C3, C6 and C7 substituents is detrimental to activity. […] (See FIG. 4). Additional activity was also observed when C17 was left in its natural R configuration.

With `Cn1c(CCCC(=O)O)nc2cc(N(CCCl)CCCl)ccc21` [Bendamustine], in assay [1], the “splicing inhibition of housekeeping gene GAPDH” value is on record as “Neither FD-895, PLAD nor chemotherapy agents showed splicing inhibition”. The “intron retention/splicing inhibition of DNAJB1” value in assay [2] is listed as “did not show intron retention/splicing inhibition”.

Turning to `Nc1nc(F)nc2c1ncn2[C@@H]1O[C@H](COP(=O)(O)O)[C@@H](O)[C@@H]1O` [F-Ara-A, Fludarabine phosphate], the IC50 in assay [3] was above 10000 nM. Take `CC[C@H](OC)[C@@H](C)[C@H]1O[C@@H]1[C@H](O)[C@@H](C)/C=C/C=C(\C)[C@H]1OC(=O)C[C@H](O)CC[C@@](C)(O)[C@@H](OC(C)=O)/C=C/[C@@H]1C` [Isomer 1RS]: in assay [4], the “times more active than FD-895” value was around 25 times and the concentration for half-maximal inhibition (IC50) was found to be 0.8 ± 0.05 nM. For `CC[C@H](OC)[C@@H](C)[C@H]1O[C@@H]1[C@@H](O)[C@H](C)/C=C/C=C(\C)[C@H]1OC(=O)C[C@H](O)CC[C@@](C)(O)[C@@H](OC(C)=O)/C=C/[C@@H]1C` [Isomer 1SR], the 50% inhibitory concentration (IC50) in assay [4] is 3.7 ± 0.2 nM. With `CC[C@H](OC)[C@@H](C)[C@H]1O[C@@H]1[C@@H](O)[C@@H](C)/C=C/C=C(\C)[C@H]1OC(=O)C[C@H](O)CC[C@@](C)(O)[C@@H](OC(C)=O)/C=C/[C@@H]1C` [Isomer 1SS], the concentration for half-maximal inhibition (IC50) in assay [4] (Homo sapiens) stood at 23 ± 1.2 nM.
